Assay results as given in patent publication US11524962B2, “Substituted pyrrolo[2,3-d]pyrimidines as inhibitors of protein arginine methyl transferase 5 (PRMT5)” (PRELUDE THERAPEUTICS, INCORPORATED, priority 2017, dated 2022).

How the values were obtained:
[1] = test system: Symmetric Di-Methyl Arginine (sDMA) marks in Granta-519 cells; experiment: sDMA Western blot / In Cell Western in Granta-519 cells; assay type: cell-based; settings: Homo sapiens, 72 h; Granta-519, 3 days; read-out: sDMA_Granta IC50
Experimental: (§1) Compound titration and cell culture: Compounds were dissolved in DMSO to make 10 mM stock and 3-fold series dilutions were further conducted to make working stocks top at 1 mM. Granta-519 cells were maintained in PRMI 1640 (Corning Cellgro, Catalog #: 10-040-CV) supplemented with 10% v/v FBS (GE Healthcare, Catalog #: SH30910.03) and U-87 MG cells were maintained in DMEM (Corning Cellgro, Catalog #: 10-013-CV) with 10% FBS and 2 mM Glutamin (Corning Cellgro, Catalog #25005CV).
(§2) To determine enzyme inhibition IC50 values in Granta-519 and U-87 MG cells using Western Blot analysis. One day before experiment, Granta-519 cells were passaged to a density of 0.5×10^6 cells/ml. U-87 MG cells were trypsinized and 4×10^5 cells were seeded into 6-well plates and allow to grow overnight. The next day, Granta-519 cells were spun down at 1,500 rpm for 4 min, resuspend in fresh medium at 0.5×10^6 cells/ml and 3 mL of culture (1.5×10^6 cells) were seeded into 6 well plate. Eight-point, 3-fold serial dilutions of compound working stocks were added to cells (3 ul, 1:1,000 dilution, DMSO concentration was 0.1%; final top concentration at 1 uM) and incubated for 3 days. Cells incubated with DMSO was used as a vehicle control.
(§3) Cells were harvested 3 days later, resuspended in 15 uL PBS, lysed in 4% SDS, and homogenized by passing through homogenizer column (Omega Biotek, Catalog #: HCR003). Total protein concentrations were determined by BCA assay (ThermoFisher Scientific, Catalog #: 23225). Lysates were mixed with 5× Laemmli buffer and boiled for 5 min. Forty ug of total protein was separated on SDS-PAGE gels (Bio-Rad, catalog #: 4568083, 4568043), transferred to PVDF membrane, blocked with 5% dry milk (Bio-Rad, Catalog #: 1706404) in TBS with 0.1% v/v Tween 20 (TBST) for 1 hour at room temperature (RT), and incubated with primary antibodies (sDMA: Cell signaling, Catalog #: 13222, 1:3,000; β-Actin: sigma, Catalog #: 1:5,000) in 5% dry milk in TBST at 4° C. overnight. The next day, membranes were washed with TBST, 5×5 min, and incubated with HRP conjugated seconded antibody (GE Healthcare; Catalog #: NA934-1ML, NA931-1ML; 1:5,000) for 2 hours at RT, followed by 5×5 min washes with TBST, and incubation with ECL substrates (Bio-Rad, Catalog #: 1705061, 1705062). Chemiluminescent signal was captured with Fluochem HD2 imager (Proteinsimple). SmD3me2s bands were quantified by ImageJ. Signals were normalized to β-Actin and DMSO control. IC50 values were calculated using Graphpad Prism ([Inhibitor]vs. normalized response−Variable slope).
sDMA In Cell Western procedure (ICW): Granta-519 cells were passaged to a density of 0.5×10^6 cells/ml one day before experiments and allowed to grow overnight. The next day (day 0), cells were spun down at 1,500 rpm for 4 min, resuspended in fresh medium to 0.2×10^6 cells/ml and 100 uL of cells were added to 384-well plates using a Multidrop Combi Dispenser (ThermoFisher). A series of 9-point, 3-fold serial dilutions of compounds were prepared and dispensed into wells from a 1 mM stock solution using a TECAN digital dispenser (D300e) and the DMSO % concentration was normalized in each well to 0.1%. DMSO and 3 uM of reference compounds were used as negative (minimum inhibition) and positive (maximum inhibition) controls, respectively. After 3 days of incubation, cells were first resuspended and then 80 ul of cells were transferred to a Poly-D-lysine 384-well plate (Corning, Catalog #354663), followed by 30 minutes incubation at room temperature (RT) and 5 additional hours of incubation at 37° C. […]

U-87 MG cells = experiment: Cell proliferation assay in U-87 MG cells; assay type: cell-based; settings: Homo sapiens, 240 h, day 10, read-out: Prolif_U87 IC50
Experimental: One day before experiment, Granta-519 cells were passaged to a density of 0.5×10^6 cells/ml. U-87 MG cells were trypsinized and 2,000 cells were seeded into 96-well plates and allow to grow overnight. On the day of experiment (day 0), Granta-519 Cells were spun down at 1,500 rpm for 4 min, resuspended in fresh medium to 0.5×10^6 cells/ml and 190 ul of cells were added to 96 well plates. For U-87 MG cells, old medium was removed and replaced with 190 uL fresh medium. Compound working stocks were first diluted at 1:50 with fresh medium in 96 well plate and 10 μL of diluted drugs were added to 96 well plates containing cells and incubated for 3 days. DMSO was used a vehicle control.
One day 3, 50 uL of Granta-519 cells were transferred to a new 96-well plate and 140 uL fresh medium was added. For U-87 MG cells, old medium was removed and replaced with 190 uL fresh medium. Compound working stocks were freshly diluted at 1:50 with medium and 10 μL of diluted drugs were added to cells and grow for 3 additional days. The same process was repeated on day 6. Cells were allowed to grow for additional 4 days.
On day 10, 100 uL Granta-519 cells were transferred to a new 96 well plate and 10 μL of Cell Counting Kit-8 (CCK-8, Jojindo, CK04-13) solution was added. For U-87 MG cells, old medium was removed and replaced with 100 uL fresh medium and 10 uL CCK-8 solution was added. Plates were incubated in CO2 incubator for 2 hours (Granta-519 cells) or 30 min (U-87 MG cells) and OD450 values were measured with a microplate reader (iMark microplate reader, Bio-Rad). Percentage of viable cells, relative to DMSO vehicle control, were calculated and plotted in Graphpad Prism ([Inhibitor]vs. normalized response−Variable slope) to determine proliferation IC50 values on day 10.
These cell proliferation procedures produced the data in Table 7.

PRMT5/MEP50 complex [2] = biological target: T1, PRMT5/MEP50 complex (Homo sapiens (Human), UniProt O14744); experiment: Flash plate assay; assay type: biochemical; settings: read-out: Flash Plate IC50
Experimental: Flash plate assay. Compounds were solubilized, and 3-fold diluted in 100% DMSO. […] Standard reactions were performed in a total volume of 30 μl in assay buffer, with 300 nM histone H4 based AcH4-23 (Anaspec: AS-65002) as substrate. To this was added the PRMT5/MEP50 complex diluted to provide a final assay concentration of 2.5 nM and the compounds were allowed to preincubate for 20 minutes at 37° C. The reaction was initiated by adding S-[3H-methyl]-adenosyl-L-methionine (PerkinElmer: NET155001MC) to final concentration of 1 μM. Following a 30 minutes incubation at 37° C., the reaction was stopped by adding 25 μL of 8M Guanidine HCl. Prepare streptavidin YSI SPA beads (Perkinelmer: RPNQ0012) at 0.3 mg/mL in assay buffer. To each reaction, add 150 μL of SPA beads suspension, and incubated while shaking at room temperature for 30 minutes. The plate was centrifuged at 100×g for 30 second before reading in a scintillation counter. IC50 values were determined by fitting the data to the standard 4 parameters with Hill Slope using GraphPad Prism software. This procedure produced the Flash Plate data in Table 7.

[3] = test system: Symmetric Di-Methyl Arginine (sDMA) marks in U-87 MG cells; experiment: sDMA Western blot / In Cell Western in U-87 MG cells; assay type: cell-based; settings: Homo sapiens, 72 h, 3 days, read-out: sDMA_U87 IC50
Experimental: as §1, §2, §3
U87-MG cells were trypsinized one day before the experiment, seeded into a 384-well plate at 2500 cells/well using a Multidrop Combi Dispenser (ThermoFisher) and allowed to grow overnight. The next day (day 0), a series of 9-point, 3-fold serial dilutions of compounds were prepared and dispensed into wells from a 1 mM stock solution using a TECAN digital dispenser (D300e) and the DMSO % concentration was normalized to 0.1%. Three days later, media was removed, and cells were processed as described above.
To determine IC50 values, the ratio for each well was calculated (sDMA 800 nm value/DRAQ5 700 nm value). Each plate included 28 negative control wells (DMSO only, minimum inhibition) and 18 positive control wells for maximum inhibition (treated with 3 uM of a reference compounds, background wells). The average ratios of minimum and maximum inhibition controls were calculated and used to determine the percentage of sDMA, relative to DMSO, for each well in the plate.
These procedures generated the sDMA data in Table 7.

PRMT5/MEP50 complex [4] = biological target: T1, PRMT5/MEP50 complex; experiment: HotSpot Assay; assay type: biochemical
Experimental: HotSpot Assay. Compounds were solubilized and 3-fold diluted in 100% DMSO. […] Standard reactions were performed in a total volume of 50 μl in assay buffer, with histone H2A (5 μM final) as substrate. To this was added the PRMT5/MEP50 complex diluted to provide a final assay concentration of 5 nM and the compounds were allowed to preincubate for 15 to 20 minutes at room temperature. The reaction was initiated by adding S-[3H-methyl]-adenosyl-L-methionine (PerkinElmer) to final concentration of 1 μM. Following a 60 minutes incubation at 30° C., the reaction was stopped by adding 100 μL of 20% TCA. Each reaction was spotted onto filter plate (MultiScreen FB Filter Plate, Millipore), and washed 5 times with PBS buffer, Scintillation fluid was added to the filter plate and read in a scintillation counter. IC50 values were determined by fitting the data to the standard 4 parameters with Hill Slope using GraphPad Prism software. This procedure generated the HotSpot data in Table 7.

T1 sequence (O14744 whole entry): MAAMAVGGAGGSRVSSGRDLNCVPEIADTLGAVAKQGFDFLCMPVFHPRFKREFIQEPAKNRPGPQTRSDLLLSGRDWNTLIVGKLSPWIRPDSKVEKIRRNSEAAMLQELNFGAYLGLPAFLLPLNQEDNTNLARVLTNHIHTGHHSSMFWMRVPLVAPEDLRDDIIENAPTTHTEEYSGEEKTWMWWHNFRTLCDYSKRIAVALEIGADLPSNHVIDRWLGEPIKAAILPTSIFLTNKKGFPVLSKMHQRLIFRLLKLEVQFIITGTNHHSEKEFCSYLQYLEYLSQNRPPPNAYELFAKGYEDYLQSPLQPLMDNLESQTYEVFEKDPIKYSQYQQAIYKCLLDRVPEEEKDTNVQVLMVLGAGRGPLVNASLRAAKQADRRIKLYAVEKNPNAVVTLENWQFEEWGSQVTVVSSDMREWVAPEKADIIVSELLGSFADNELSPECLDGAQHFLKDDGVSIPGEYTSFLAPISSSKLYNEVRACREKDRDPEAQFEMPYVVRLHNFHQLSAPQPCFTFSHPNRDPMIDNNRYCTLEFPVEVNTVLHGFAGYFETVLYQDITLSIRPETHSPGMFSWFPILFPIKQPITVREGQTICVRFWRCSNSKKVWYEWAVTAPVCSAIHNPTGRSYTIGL
T1 sequence (Q9BQA1 whole entry partner): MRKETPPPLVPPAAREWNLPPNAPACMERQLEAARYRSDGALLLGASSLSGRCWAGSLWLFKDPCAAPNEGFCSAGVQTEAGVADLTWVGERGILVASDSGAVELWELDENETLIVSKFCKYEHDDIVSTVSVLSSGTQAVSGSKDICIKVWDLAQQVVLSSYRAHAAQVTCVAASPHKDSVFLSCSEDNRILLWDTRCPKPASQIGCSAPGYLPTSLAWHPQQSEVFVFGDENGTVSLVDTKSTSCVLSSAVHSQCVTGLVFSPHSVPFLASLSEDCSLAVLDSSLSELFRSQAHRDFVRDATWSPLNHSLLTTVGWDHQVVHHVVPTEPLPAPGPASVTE

IC50 [1]	IC50 (U-87 MG cells)	IC50 (PRMT5/MEP50 complex [2])	IC50 [3]	IC50 (PRMT5/MEP50 complex [4])	Structure (SMILES)
337 nM	10000 nM	74 nM	758 nM		COCCc1ncnc2c1ccn2[C@@H]1O[C@H]([C@H](O)c2ccc3c(c2)CC3)[C@@H](O)[C@H]1O [Example 48, (2R,3S,4R,5R)-2-((R)-bicyclo[4.2.0]octa-1(6),2,4-trien-3-yl(hydroxy)methyl)-5-(4-(2-methoxyethyl)-7H-pyrrolo[2,3-d]pyrimidin-7-yl)tetrahydrofuran-3,4-diol]
	388 nM	24.3 nM	110 nM	5 nM	Cc1ncnc2c1ccn2[C@@H]1O[C@H]([C@](C)(O)c2ccc3c(c2)CC3)[C@@H](O)[C@H]1O [Example 9, (2S,3S,4R,5R)-2-((R)-1-(bicyclo[4.2.0]octa-1(6),2,4-trien-3-yl)-1-hydroxyethyl)-5-(4-methyl-7H-pyrrolo[2,3-d]pyrimidin-7-yl)tetrahydrofuran-3,4-diol]
	547 nM	6.6 nM	54 nM		Nc1ncnc2c1ccn2[C@@H]1O[C@H]([C@H](O)c2ccc3c(c2)CCC3)[C@@H](O)[C@H]1O [Example 45, (2R,3R,4S,5R)-2-(4-amino-7H-pyrrolo[2,3-d]pyrimidin-7-yl)-5-((R)-(2,3-dihydro-1H-inden-5-yl)(hydroxy)methyl)tetrahydrofuran-3,4-diol]
375 nM	10000 nM	78 nM	625 nM		O[C@@H]1[C@H](O)[C@@H]([C@H](O)c2ccc3c(c2)CC3)O[C@H]1n1ccc2c(CF)ncnc21 [Example 49, (2R,3S,4R,5R)-2-((R)-bicyclo[4.2.0]octa-1(6),2,4-trien-3-yl(hydroxy)methyl)-5-(4-(fluoromethyl)-7H-pyrrolo[2,3-d]pyrimidin-7-yl)tetrahydrofuran-3,4-diol]
